Activity calls are given as the source filed them. No rule for the calls is given here.
Test system: rodent carcinogenicity bioassays, tumor incidence
Assay: CCRIS carcinogenicity studies
In short: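 Archive of carcinogenicity, mutagenicity, tumor promotion and tumor inhibition results drawn from journals, NCI reports and other sources, expert-reviewed; covers 1985-2011 and is no longer updated.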

| SMILES | carcinogen call (Species: FISH, Strain/Sex: RAINBOW TROUT/MALE,FEMALE, Route: INJECTION, Dose: 0, 0.01, 1 UG INJECTED INTO NEWLY HATCHED SAC-FRY ONCE (STUDY DURATION: 9 MO), Dose: 0, 0.01, 1 UG INJECTED INTO NEWLY HATCHED SAC-FRY ONCE (STUDY DURATION: 9 MO), Tumor Site: Type of Lesion: LIVER: TUMOR) | carcinogen call (Species: FISH, Strain/Sex: RAINBOW TROUT/MALE,FEMALE, Route: INJECTION, Dose: 0, 0.5, 2, 5 UG INJECTED INTO NEWLY HATCHED SAC-FRY (STUDY DURATION: 9 MO), Dose: 0, 0.5, 2, 5 UG INJECTED INTO NEWLY HATCHED SAC-FRY (STUDY DURATION: 9 MO), Tumor Site: Type of Lesion: LIVER: TUMOR) | carcinogen call (Species: MOUSE, Strain/Sex: C57BL/FEMALE, Route: DERMAL, Dose: 0.15, 0.30 UMOL IN ACETONE/NH4OH (1000:1) EVERY 2 WK FOR 60 WK, Tumor Site: Type of Lesion: INTEGUMENTARY SYSTEM (SKIN): SQUAMOUS CELL CARCINOMA) | carcinogen call (Species: MOUSE, Strain/Sex: SWISS/MALE,FEMALE, Route: INTRAPERITONEAL, Dose: 200 NMOL ON FIRST D OF LIFE, 400 NMOL ON D 8, 800 NMOL ON D 15, Tumor Site: Type of Lesion: LUNG: ADENOMA, HEMATOPOIETIC SYSTEM (LEUKEMIA), LYMPHATIC SYSTEM: MALIGNANT LYMPHOMA, Tumor Site: Type of Lesion: LUNG: ADENOMA, HEMATOPOIETIC SYSTEM (LEUKEMIA), LYMPHATIC SYSTEM: MALIGNANT LYMPHOMA) | carcinogen call (Species: MOUSE, Strain/Sex: CD-1/FEMALE, Route: ORAL, Dose: 0, 15, 150, MG/KG IN DIET FOR 78 WK (STUDY DURATION: 78 WK), Dose: 0, 15, 150, MG/KG IN DIET FOR 78 WK (STUDY DURATION: 78 WK)) | carcinogen call (Species: MOUSE, Strain/Sex: CD-1/MALE, Route: ORAL, Dose: 0, 15, 150, MG/KG IN DIET FOR 78 WK (STUDY DURATION: 78 WK), Dose: 0, 15, 150, MG/KG IN DIET FOR 78 WK (STUDY DURATION: 78 WK), Tumor Site: Type of Lesion: LIVER: ADENOMA) | carcinogen call (Species: RAT, Strain/Sex: CD/FEMALE, Route: ORAL, Dose: 0, 15, 150 MG/KG IN DIET FOR 104 WK (STUDY DURATION: 104 WK), Dose: 0, 15, 150 MG/KG IN DIET FOR 104 WK (STUDY DURATION: 104 WK)) | carcinogen call (Species: RAT, Strain/Sex: CD/MALE, Route: ORAL, Dose: 0, 15, 150 MG/KG IN DIET FOR 104 WK (STUDY DURATION: 104 WK), Dose: 0, 15, 150 MG/KG IN DIET FOR 104 WK (STUDY DURATION: 104 WK)) |
| --- | --- | --- | --- | --- | --- | --- | --- | --- |
| O[C@H]1C=Cc2c(cc3ccc4cccc5ccc2c3c45)[C@@H]1O | active; positive | active; positive | active; positive | active; positive |  |  |  |  |
| CCn1nc(C)c2c1C(c1ccccc1)=NCC(=O)N2 |  |  |  |  | inactive; negative | active; positive | inactive; negative | inactive; negative |
